What was measured:
[1] = system: PBMCs from breast cancer patient OBCR25; test: proliferation assay (3H-thymidine) with h5T4 class II peptide pools and peptides; format: cell-based, human; settings: PBMCs of breast cancer patient OBCR25, 6 days incubation, 3H-thymidine pulse overnight
Method: FIG. 1 is a schematic diagram illustrating the proliferation assay for measuring cellular responses
A h5T4 peptide library was produced consisting of 51 20 mer peptides overlapping by […]. Class II peptide pools containing 5 peptides per pool were incubated with PBMCs from breast cancer patients OBCR24 and OBCR25 and proliferation was measures using the assay illustrated in FIG. 1. After 6 days incubation, cells were pulsed overnight with ^3H-thymidine and incubated overnight at 37° C.

PBMCs from OBCR25 = test: IFNγ ELISPOT assay after restimulation in vitro with h5T4 peptides; format: cell-based, human; settings: PBMCs from OBCR25 restimulated in vitro with h5T4 peptides
Method: FIG. 2 is a schematic diagram illustrating the ELISPOT assay for measuring antigen-specific IFNγ production.
To measure antigen-specific IFNγ production, an ELISPOT assay was conducted following the general scheme illustrated in FIG. 2.

## YRYEINADPRLTNLSSNSDV (listed as Homo sapiens) [peptide #51, extreme C-terminal 20 amino acids (401-420) of h5T4; 20 mer peptide of pool #10]
[1]
  proliferative response: positive response
PBMCs from OBCR25
  IFNγ ELISPOT response: positive ELISPOT response
